Each structure is given as a SMILES string. Counter-ions that a name gives are not always drawn.

In one assay the target is IRAK4 (Homo sapiens (Human), UniProt Q9NWZ3). Description: Screening the compounds against IRAK4 with ATP (Caliper, FAM-labeled peptide). The assay is classed as biochemical. The note with it: IRAK4 kinase inhibition relative to CA4948. As for the experimental part: Prepare Ix kinase base buffer and stop buffer for testing kinases: (1) base buffer: 50 mM HEPES (pH 7.5), 0.0015% Brij-35; (2) stop buffer: 100 mM HEPES (pH 7.5), 0.015% Brij-35, 0.2% Coating Reagent #3, 50 mM EDTA. Then prepare compounds for testing: Dilute the compound to 50× of the final desired highest inhibitor concentration in reaction by 100% DMSO. Transfer 100 μL of this compound dilution to a well in a 96-well plate (source plate).
Chain of IRAK4 (Q9NWZ3 whole entry): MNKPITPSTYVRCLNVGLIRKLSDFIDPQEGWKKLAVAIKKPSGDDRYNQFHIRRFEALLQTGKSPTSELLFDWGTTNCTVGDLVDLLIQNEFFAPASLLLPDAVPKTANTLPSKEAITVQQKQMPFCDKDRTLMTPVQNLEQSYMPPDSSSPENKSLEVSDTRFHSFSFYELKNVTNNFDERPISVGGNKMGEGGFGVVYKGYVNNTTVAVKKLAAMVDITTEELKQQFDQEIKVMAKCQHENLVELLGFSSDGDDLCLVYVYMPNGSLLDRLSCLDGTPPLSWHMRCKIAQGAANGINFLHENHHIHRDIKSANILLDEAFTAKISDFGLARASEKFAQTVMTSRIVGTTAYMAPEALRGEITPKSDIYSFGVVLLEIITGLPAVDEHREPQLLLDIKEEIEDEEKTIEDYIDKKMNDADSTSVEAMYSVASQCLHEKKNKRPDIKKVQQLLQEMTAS
Serially dilute the compounds by 3-fold for a total of 10 points. Transfer 10 μL of the compound from the source plate to a new 96-well plate (intermediate plate) and add 90 μL of Ix kinase buffer. Shake the mixture on the intermediate plate for 10 min. Transfer 5 μL of each well from the 96-well intermediate plate to a 384-well plate in duplicates. Add 10 μL of 2.5× enzyme solution to each well of the 384-well assay plate and incubate at room temperature for 10 min. Add 10 μL, of 2.5×FAM-labeled peptide and ATP solution and incubate at 28° C. for a period of time. Finally stop the reaction by adding 30 μL of stop buffer and collect data on Caliper to obtain the IC50.
Consider `Cn1cc(-c2cccc(NC(=O)c3cc4c(nc3OC3CC3)OC(C)(C)C4)n2)cn1` [Compound B29, 6-Cyclopropoxy-2,2-dimethyl-N-(6-(1-methyl-1H-pyrazol-4-yl)pyridin-2-yl)-2,3-dihydrofuro[2,3-b]pyridine-5-carboxamide], for which the “activity, times better than that of the positive control compound CA4948” value is “more than 10 times”.
Still for that read-out and setting: the same measure for `Cl.Cn1cc(-c2cccc(NC(=O)c3cc4oc(N5CCOCC5)nc4nc3N3CCN(CCO)CC3)n2)cn1` [Compound A36, 5-(4-(2-Hydroxyethyl)piperazin-1-yl)-N-(6-(1-methyl-1H-pyrazol-4-yl)pyridin-2-yl)-2-morpholinooxazolo[4,5-b]pyridine-6-carboxamide Hydrochloride]: “more than 5 times”; for `Cl.Cn1cc(-c2cccc(NC(=O)c3cc4oc(N5CCOCC5)nc4nc3N3CCN(C4CC4)CC3)n2)cn1` [Compound A35, 5-(4-Cyclopropylpiperazin-1-yl)-N-(6-(1-methyl-1H-pyrazol-4-yl)pyridin-2-yl)-2-morpholinooxazolo[4,5-b]pyridine-6-carboxamide Hydrochloride]: “more than 10 times”.
With `COC1CCN(c2nc3c(cc2C(=O)Nc2cccc(-c4cnn(C)c4)n2)CC(C)(C)O3)CC1` [Compound B1, 6-(4-Methoxypiperidin-1-yl)-2,2-dimethyl-N-(6-(1-methyl-1H-pyrazol-4-yl)pyridin-2-yl)-2,3-dihydrofuro[2,3-b]pyridine-5-carboxamide], the “activity, times better than that of the positive control compound CA4948” value is recorded as “more than 25 times”.

Staying with this assay, now noted: read-out: IC50 (nM) (10 μM ATP).
A word on the IC50: it is the concentration needed to halve the response being measured. Regarding `COC1CCN(c2nc3nc(N4CCN(CCO)CC4)oc3cc2C(=O)Nc2cccc(-c3cnn(C)c3)n2)CC1` [Compound A57, 2-(4-(2-Hydroxyethyl)piperazin-1-yl)-5-(4-methoxypiperidin-1-yl)-N-(6-(1-methyl-1H-pyrazol-4-yl)pyridin-2-yl)oxazolo[4,5-b]pyridine-6-carboxamide], the IC50 was 5.1 nM.
Consider `CC1(C)Cc2cc(C(=O)Nc3cccn(C4CC4)c3=O)c(N3CCC(O)CC3)nc2O1` [Compound B10, N-(1-Cyclopropyl-2-oxo-1,2-dihydropyridin-3-yl)-6-(4-hydroxypiperidin-1-yl)-2,2-dimethyl-2,3-dihydrofuro[2,3-b]pyridine-5-carboxamide], for which the IC50 was determined as 479 nM.

The same assay, now with this note: read-out: IC50 (nM) (10 μM ATP); IRAK4 kinase, 10 μM ATP.
`CN1CCN(c2nc3nc(N4CCC5(CCO5)CC4)c(C(=O)Nc4cccc(-c5cnn(C)c5)n4)cc3o2)CC1` [Compound A58, N-(6-(1-Methyl-1H-pyrazol-4-yl)pyridin-2-yl)-2-(4-methylpiperazin-1-yl)-5-(1-oxa-7-azaspiro[3.5]nonan-7-yl)oxazolo[4,5-b]pyridine-6-carboxamide]: the IC50 was 4.9 nM.
On the same count and under the same terms, the same measure for `Cn1cc(-c2cccc(NC(=O)c3cc4c(nc3OC3COC3)OC(C)(C)C4)n2)cn1` [Compound B16, 2,2-Dimethyl-N-(6-(1-methyl-1H-pyrazol-4-yl)pyridin-2-yl)-6-(oxetan-3-yloxy)-2,3-dihydrofuro[2,3-b]pyridine-5-carboxamide]: 11 nM; for `CN1CCN(c2nc3c(cc2C(=O)Nc2cccc(-c4cnn(C)c4)n2)CC(C)(C)O3)CC1` [Compound B2, 2,2-Dimethyl-N-(6-(1-methyl-1H-pyrazol-4-yl)pyridin-2-yl)-6-(4-methylpiperazin-1-yl)-2,3-dihydrofuro[2,3-b]pyridine-5-carboxamide]: 54 nM.
For the compound `Cn1cc(-c2cccc(NC(=O)c3cc4oc(N5CCOCC5)nc4nc3N3CCC(F)(F)C3)n2)cn1` [Compound A12, 5-(3,3-Difluoropyrrolidin-1-yl)-N-(6-(1-methyl-1H-pyrazol-4-yl)pyridin-2-yl)-2-morpholinooxazolo[4,5-b]pyridine-6-carboxamide], the IC50 is 33 nM.
Same read-out and setting: the value for `Cn1cc(-c2cccc(NC(=O)c3cc4oc(N5CCOCC5)nc4nc3N3CC[C@H](O)C3)n2)cn1` [Compound A6, (S)-5-(3-hydroxypyrrolidin-1-yl)-N-(6-(1-methyl-1H-pyrazol-4-yl)pyridin-2-yl)-2-morpholinooxazolo[4,5-b]pyridine-6-carboxamide] was 194 nM; that for `CN1CC(Oc2nc3c(cc2C(=O)Nc2cccc(-c4cnn(C)c4)n2)CC(C)(C)O3)C1` [Compound B31, 2,2-Dimethyl-N-(6-(1-methyl-1H-pyrazol-4-yl)pyridin-2-yl)-6-((1-methylazetidin-3-yl)oxy)-2,3-dihydrofuro[2,3-b]pyridine-5-carboxamide] was 176 nM; that for `Cn1cc(-c2cccc(NC(=O)c3cc4c(nc3N3CCC5(CCO5)CC3)OC(C)(C)C4)n2)cn1` [Compound B6, 2,2-Dimethyl-N-(6-(1-methyl-1H-pyrazol-4-yl)pyridin-2-yl)-6-(1-oxa-7-azaspiro[3.5]nonan-7-yl)-2,3-dihydrofuro[2,3-b]pyridine-5-carboxamide] was 5.9 nM.
Consider `Cn1cc(-c2cccc(NC(=O)c3cc4oc(N5CCNCC5)nc4nc3N3CCC(C)(O)CC3)n2)cn1` [Compound A56, 5-(4-Hydroxy-4-methylpiperidin-1-yl)-N-(6-(1-methyl-1H-pyrazol-4-yl)pyridin-2-yl)-2-(piperazin-1-yl)oxazolo[4,5-b]pyridine-6-carboxamide], for which the IC50 came out at 7.8 nM.
Same read-out and setting: the same measure for `COCCN1CCN(c2nc3nc(N4CCOCC4)oc3cc2C(=O)Nc2cccc(-c3cnn(C)c3)n2)CC1` [Compound A34, 5-(4-(2-Methoxyethyl)piperazin-1-yl)-N-(6-(1-methyl-1H-pyrazol-4-yl)pyridin-2-yl)-2-morpholinooxazolo[4,5-b]pyridine-6-carboxamide Hydrochloride]: 40 nM; for `Cn1cc(-c2cccc(NC(=O)c3cc4c(nc3OC3CC3)OC(C)(C)C4)n2)cn1` [Compound B29, 6-Cyclopropoxy-2,2-dimethyl-N-(6-(1-methyl-1H-pyrazol-4-yl)pyridin-2-yl)-2,3-dihydrofuro[2,3-b]pyridine-5-carboxamide]: 6.2 nM.
For `Cn1cc(-c2cccc(NC(=O)c3cc4c(nc3O[C@H]3CCOC3)OC(C)(C)C4)n2)cn1` [Compound B17, (S)-2,2-Dimethyl-N-(6-(1-methyl-1H-pyrazol-4-yl)pyridin-2-yl)-6-((tetrahydrofuran-3-yl)oxy)-2,3-dihydrofuro[2,3-b]pyridine-5-carboxamide], the IC50 was found to be 6.5 nM.
As for `Cl.Cn1cc(-c2cccc(NC(=O)c3cc4oc(N5CCOCC5)nc4nc3N3CCN(CCO)CC3)n2)cn1` [Compound A36, 5-(4-(2-Hydroxyethyl)piperazin-1-yl)-N-(6-(1-methyl-1H-pyrazol-4-yl)pyridin-2-yl)-2-morpholinooxazolo[4,5-b]pyridine-6-carboxamide Hydrochloride], the half-maximal inhibitory concentration (IC50) stood at 17 nM.
Still for that read-out and setting: the value for `Cn1cc(-c2cccc(NC(=O)c3cc4c(nc3N3CCN(C5CC5)CC3)OC(C)(C)C4)n2)cn1` [Compound B4, 6-(4-Cyclopropylpiperazin-1-yl)-2,2-dimethyl-N-(6-(1-methyl-1H-pyrazol-4-yl)pyridin-2-yl)-2,3-dihydrofuro[2,3-b]pyridine-5-carboxamide] was 7.5 nM; that for `Cl.Cn1cc(-c2cccc(NC(=O)c3cc4oc(N5CCOCC5)nc4nc3N3CCN(C4CC4)CC3)n2)cn1` [Compound A35, 5-(4-Cyclopropylpiperazin-1-yl)-N-(6-(1-methyl-1H-pyrazol-4-yl)pyridin-2-yl)-2-morpholinooxazolo[4,5-b]pyridine-6-carboxamide Hydrochloride] was 8.9 nM; that for `COc1cccc(NC(=O)c2cc3oc(N4CCOCC4)nc3nc2N2CCC(OC)CC2)n1` [Compound A46, 5-(4-Methoxypiperidin-1-yl)-N-(6-methoxypyridin-2-yl)-2-morpholinooxazolo[4,5-b]pyridine-6-carboxamide] was 179 nM.
For the compound `COc1ncccc1NC(=O)c1cc2oc(N3CCOCC3)nc2nc1N1CCC(OC)CC1` [Compound A50, 5-(4-Methoxypiperidin-1-yl)-N-(2-methoxypyridin-3-yl)-2-morpholinooxazolo[4,5-b]pyridine-6-carboxamide], the IC50 worked out at 98 nM.
The same measure, in the same setting: the same measure for `Cn1cc(-c2cccc(NC(=O)c3cc4oc(N5CCOCC5)nc4nc3N3CC4(C3)CC(F)(F)C4)n2)cn1` [Compound A15, 5-(6,6-Difluoro-2-azaspiro[3.3]heptan-2-yl)-N-(6-(1-methyl-1H-pyrazol-4-yl)pyridin-2-yl)-2-morpholinooxazolo[4,5-b]pyridine-6-carboxamide]: 244 nM.
In the case of `COC1CCN(c2nc3c(cc2C(=O)Nc2cccc(-c4cnn(C)c4)n2)CC(C)(C)O3)CC1` [Compound B1, 6-(4-Methoxypiperidin-1-yl)-2,2-dimethyl-N-(6-(1-methyl-1H-pyrazol-4-yl)pyridin-2-yl)-2,3-dihydrofuro[2,3-b]pyridine-5-carboxamide], the IC50 came out at 4.5 nM.
With `Cn1cc(-c2cccc(NC(=O)c3cc4oc(N5CCNCC5)nc4nc3N3CCC4(CCO4)CC3)n2)cn1` [Compound A55, N-(6-(1-Methyl-1H-pyrazol-4-yl)pyridin-2-yl)-2-(piperazin-1-yl)-5-(1-oxa-7-azaspiro[3.5]nonan-7-yl)oxazolo[4,5-b]pyridine-6-carboxamide], the IC50 is 5.9 nM.
Still for that read-out and setting: the value for `Cn1cc(-c2cccc(NC(=O)c3cc4c(nc3OC3CCOCC3)OC(C)(C)C4)n2)cn1` [Compound B23, 2,2-Dimethyl-N-(6-(1-methyl-1H-pyrazol-4-yl)pyridin-2-yl)-6-((tetrahydro-2H-pyran-4-yl)oxy)-2,3-dihydrofuro[2,3-b]pyridine-5-carboxamide] was 11 nM.
On the same count and under the same terms, the same measure for `COc1nc2c(cc1C(=O)Nc1cccc(-c3cnn(C)c3)n1)CC(C)(C)O2` [Compound B11, 6-Methoxy-2,2-dimethyl-N-(6-(1-methyl-1H-pyrazol-4-yl)pyridin-2-yl)-2,3-dihydrofuro[2,3-b]pyridine-5-carboxamide]: 50 nM.
The same measure, in the same setting: the value for `CN1CCN(c2nc3nc(N4CCOCC4)oc3cc2C(=O)Nc2cccc(-c3cnn(C)c3)n2)CC1CO` (centres unmarked) [Compound A37, 5-(3-(Hydroxymethyl)-4-methylpiperazin-1-yl)-N-(6-(1-methyl-1H-pyrazol-4-yl)pyridin-2-yl)-2-morpholinooxazolo[4,5-b]pyridine-6-carboxamide Hydrochloride] was 462 nM.
For `CC(C)Oc1nc2c(cc1C(=O)Nc1cccc(-c3cnn(C)c3)n1)CC(C)(C)O2` [Compound B13, 6-Isopropoxy-2,2-dimethyl-N-(6-(1-methyl-1H-pyrazol-4-yl)pyridin-2-yl)-2,3-dihydrofuro[2,3-b]pyridine-5-carboxamide], the IC50 was 6.2 nM.

These data come from patent publication US20250074919A1, “Heteroaryl compounds as inhibitors of irak4, compositions and applications thereof” (Accro Bioscience (HK) Limited, priority 2021, published 2025).
